# Like-named read-outs stand apart in the source and are kept apart here.
# Assays:
# μ-opiod receptor = μ-opiod receptor (Homo sapiens, UniProt P35372); details: relative to morphine; cited from earlier work
# [1] = 2 mg/kg, cited from earlier work
# [2] = cited from earlier work
# [3] = cited from earlier work; remark: listed apart in the source
# [4] = cited from earlier work; remark: listed apart in the source
# 1,7-DMX-Ab = test: Competitive antigen ELISA, antibody specificity of 1,7-DMX-Ab; assay type: binding, rabbit; details: ideal antibody specificity result hypothesized; 0 = no inhibition or no higher than 40% at 5×10^−3 M
# Experimental: (§1) BSA, antibodies, Tween™ 20 and horse radish peroxidase are added to buffers and water just prior to use. Urine samples are usually collected four hours after drinking a cup of coffee (instant or brewed with approximately 100 mg of caffeine per cup) and stored at −20° C. as 1-mL aliquots in 1.5-mL microtubes. For the ELISA, the urine samples are diluted with isotonic sodium phosphate buffer, pH 7.5 (310 mosM) to give concentrations of caffeine, 1.7-DMX and 1,7-DMU no higher than 3×10^−6 M in the microtiter plate wells. Wells of the ELISA plate are washed with a Nunc-Immuno wash 12 washer. Sixteen milliliters of a solution of 6.6 μg ml^−1 of isolated IgG antibodies is prepared in a 100 mM sodium carbonate buffer, pH 9.6, and 150 μL of this solution is pipetted in each well of a microtiter plate using a eight channel pipet (Brinkmann Transferpette™-8 50-200 μL) and 200 μL Flex tips from Brinkmann). After coating the wells with antibodies at 4° C. for 20 hours, the wells are washed 3 times with the isotonic sodium phosphate buffer containing 0.05% Tween™ 20 (IPBT) and properly drained by inverting the plate and absorbing the liquid on to a piece of paper towel. Thirty milliliters of a solution of a IPBT solution containing 1% BSA is prepared and 150 μL of this solution is pipetted in each well using a eight channel pipet (Brinkmann Transferpette ™-8 50-200 μL) and 200 μL yellow tips (Sarstedt yellow tips for P200 Gilson Pipetman). After 3 hours at room temperature, the wells are washed 3 times with IPBT solution and drained. Samples of 400 μL for determination of caffeine, 1,7-DMX and 1,7-DMU are prepared in 1.5-mL microtubes using Sarstedt yellow tips and a P200 Gilson Pipetman. Then, 200 μL of each sample are pipetted in duplicate in a Falcon 96-well microtest tissue culture plate according to the pattern shown in FIG. 22, using Sarstedt yellow tips and a P200 Gilson Pipetman. Using an eight channel pipet (Brinkmann Transferpette™-8 50-200 μL) and changing the tips of the eight channel pipet (200μL Flex tips from Brinkmann) at each row, 150 μL of samples are transferred in the corresponding wells of a 96-well ELISA microtiter plate coated with antibodies. After the addition of the samples, the microtiter plates are covered and left standing at room temperature for 2 h. While the plate is left standing the substrate buffer without the hydrogen peroxide and o-phenylenediamine hydrochloride is prepared (25 mM citric acid and 50 mM sodium phosphate dibasic buffer, pH 5.0). The microtiter plate is washed 3 times with the IPBT solution and 3 times with a 0.05% Tween™ 20 solution and drained. Then, 50 μL of hydrogen peroxide and 40 mg of o-phenylenediamine are added to the substrate buffer. One hundred fifty microliters (150 μL) of the substrate buffer solution is then added to each well using a eight channel pipet (Brinkmann Transferpette™-8 50-200 μL) and 200 μL Flex tips (Brinkmann). The microtiter plate is covered and shaken for 25-30 min at room temperature and the enzymatic reaction is stopped by adding 50 μL/well of a 2.5 N HCl solution using an eight channel pipet (Brinkmann Transferpette™-8 50-200 μL) and 200L Flex tips (Brinkmann).
# AAMU-Ab = test: Competitive antigen ELISA, cross-reactivity of AAMU-Ab; assay type: binding, rabbit; details: 0 = absence of inhibition or inhibition no higher than 40% at the highest concentration tested (5×10^−3 M)
# Experimental: (§2) Buffers and water without additives are filtered through millipore filters and kept for 1 week. BSA, antibodies, Tween™ 20 and horse radish peroxidase conjugates are added to these buffers and water just prior to use. Urine samples are usually collected 4 hours after drinking a cup of coffee (instant or brewed with approximately 100 mg of caffeine per cup) and stored at −80° C. The urine samples are diluted 10 times with sodium phosphate buffer (620 mosm, pH 7.50) and are subsequently diluted with water to give concentrations of AAMU and 1X no higher than 3×10^−6 M in the ELISA. All the pipettings are done with an eight-channel pipette, except those of the antibody and sample solutions. Starting with the last well, 100 μL of a carbonate buffer (100 mM, pH 9.6) containing 2.5 μg mL-1 antibodies are added to each well. After 90 min. at room temperature, the wells are washed three times with […] of TPB: isotonic sodium phosphate buffer (310 mosm, pH 7.50) containing 0.05% Tween™ 20.
# (§3) After the initial wash, unoccupied sites are blocked by incubation for 90 min. at room temperature with 100 μL TBP containing 3% BSA. The wells are washed four times with 100 μL TPB. […] The microplate is gently shaken with an orbital shaker at room temperature for 3-4 hours. The wells are washed three times with 100 μL TPB containing 1% BSA and three times with water containing 0.05% Tween ™ 20. To the washed plate is added 150 μL of a substrate buffer composed of citric acid (25 mM) and sodium phosphate dibasic buffer (50 mM, pH 5.0) containing 0.06% hydrogen peroxide and 0.04% o-phenylenediamine hydrochloride.
# (§4) Buffers and water without additives were filtered through millipore filters and kept for 1 week. BSA, antibodies, Tween ™ 20 and horse radish peroxidase conjugates were added to these buffers and water just prior to use. Urine samples were usually collected 4 hours after drinking a cup of coffee (instant or brewed with approximately 100 mg of caffeine per cup) and stored at 80° C. They were diluted 10 times with sodium phosphate buffer (620 mosm, pH 7.50) and were subsequently diluted with water to give concentrations of AAMU and 1X no higher than 3×10^−6 M in the ELISA. All the pipettings were done with an eight-channel pipette, except those of the antibody and sample solutions. Starting with the last well, 100 μL of a carbonate buffer (100 mM, pH 9.6) containing 2.5 μg mL^−1 antibodies was pipetted. After 90 min. at room temperature, the wells were washed three times with 100 μL of TPB: isotonic sodium phosphate buffer (310 mosm, pH 7.50) containing 0.05% Tween™ 20.
# (§5) After the initial wash, unoccupied sites were blocked by incubation for 90 min. at room temperature with 100 μL TBP containing 3% BSA. The wells were washed four times with 100 μL TPB. […] The microplate was gently shaken with an orbital shaker at room temperature for 3-4 hours. The wells were washed three times with 100 μL with TPB containing 1% BSA and three times with water containing 0.05% Tween™ 20. To the washed plate was added 150 μL of a substrate buffer composed of citric acid (25 mM) and sodium phosphate dibasic buffer (50 mM, pH 5.0) containing 0.06% hydrogen peroxide and 0.04% o-phenylenediamine hydrochloride. After 20 min. at room temperature with shaking, the reaction was stopped with 50 μL of 2.5 N HCl.
# (§6) The cross reactivities of AAMU-Ab and 1X-Ab were tested using a wide variety of caffeine metabolites and structural analogs (Table 5 below).
# Caffeine-Ab = test: Competitive antigen ELISA, antibody specificity of caffeine-Ab; assay type: binding, rabbit; details: ideal antibody specificity result hypothesized; 0 = no inhibition or no higher than 40% at 5×10^−3 M
# Experimental: as §1
# 1,7-DMU-Ab = test: Competitive antigen ELISA, antibody specificity of 1,7-DMU-Ab; assay type: binding, rabbit; details: ideal antibody specificity result hypothesized; 0 = no inhibition or no higher than 40% at 5×10^−3 M
# Experimental: as §1
# 1X-Ab = test: Competitive antigen ELISA, cross-reactivity of 1X-Ab; assay type: binding, rabbit; details: 0 = absence of inhibition or inhibition no higher than 40% at the highest concentration tested (5×10^−3 M)
# Experimental: as §2, §3, §4, §5, §6
# Sequence of μ-opiod receptor (P35372 whole entry): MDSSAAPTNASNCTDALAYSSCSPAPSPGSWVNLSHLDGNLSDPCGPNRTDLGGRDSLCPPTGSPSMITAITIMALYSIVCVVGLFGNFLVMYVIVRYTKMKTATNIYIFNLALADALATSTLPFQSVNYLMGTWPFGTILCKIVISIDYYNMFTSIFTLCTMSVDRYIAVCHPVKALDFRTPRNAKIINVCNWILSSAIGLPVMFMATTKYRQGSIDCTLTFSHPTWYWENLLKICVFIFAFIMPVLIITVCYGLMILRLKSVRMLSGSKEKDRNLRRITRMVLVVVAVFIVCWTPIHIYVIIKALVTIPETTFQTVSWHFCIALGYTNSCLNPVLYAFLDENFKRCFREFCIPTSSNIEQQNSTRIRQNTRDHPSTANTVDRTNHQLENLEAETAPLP
SMILES,"% Cross-reaction 1,7-DMX-Ab (1,7-DMX-Ab)",% Cross-Reaction AAMU-Ab (AAMU-Ab),% Cross-reaction Caffeine-Ab (Caffeine-Ab),"% Cross-reaction 1,7-DMU-Ab (1,7-DMU-Ab)",% Cross-Reaction 1X-Ab (1X-Ab),further results
COc1cccc(C2(O)CCCCC2CN(C)C)c1 (centres unmarked) [Tramadol],–,–,–,–,–,"affinity for the μ-opiod receptor, factor weaker than morphine (μ-opiod receptor): ~6000; side effects vs placebo ([1]; extensive metabolizers): caused side effects significantly more frequently than placebo; analgesic effect ([1]; extensive vs poor metabolizers): better analgesic in extensive metabolizers as compared to poor metabolizers"
COc1ccc2c(c1)[C@]13CCCC[C@@H]1[C@H](C2)N(C)CC3 [Dextromethorphan],–,–,–,–,–,"mean performance +/−SE ([2]; extensive metabolizers (EMs)): 95+/−0.5%; mean performance +/−SE ([2]; poor metabolizers (PMs), p<0.05): 86+/−6%"
Nc1ccc(S(=O)(=O)c2ccc(N)cc2)cc1 [dapsone],–,–,–,–,–,adverse reactions to dapsone ([3]; fast acetylators): 17%; adverse reactions to dapsone ([3]; slow acetylators): 46%
CN(C)CCN1C(=O)c2cccc3cc(N)cc(c23)C1=O [Amonafide],–,–,–,–,–,"deaths ([4]; 300 mg/m^2, extremely fast acetylators): two women (both oriental) died from severe myelosuppression; response rate ([4]; individuals considered to be properly dosed): 30-50%; overall response rate ([4]; phase II trial, standard 300 mg/m^2 dose for all individuals): 18%"
"CC(=O)Nc1c(N)n(C)c(=O)n(C)c1=O [5-Acetamino-6-amino-1,3-dimethyluracil]",0%,0%,0%,0%,0%,–
"Cn1c(=O)c2[nH]cnc2n(C)c1=O [1,3-Dimethyl Xanthine (Theophylline), 1,3-Dimethyl Xanthine]",0%,0%,0%,0%,0.2%,–

# From patent publication US20030091975A1, “Multiple determinants for metabolic phenotypes” (priority 2001, published 2003)
